Values after ≈ are worked out from the molar mass of the structure shown. Counter-ions that a name gives are not always drawn. Like-named read-outs stand apart in the source and are kept apart here.
What was measured:
[1] = Nalbuphine bioavailability study (Example 14)
[2] = cited from earlier work
[3] = cited from earlier work; remark: listed apart in the source
[4] = cited from earlier work; remark: listed apart in the source
[5] = orally delivered, mice; cited from earlier work
[6] = cited from earlier work; remark: listed apart in the source
[7] = cited from earlier work; remark: listed apart in the source

Oc1ccc2c3c1O[C@H]1[C@@H](O)CC[C@@]4(O)[C@@H](C2)N(CC2CCC2)CC[C@]314 [Nalbuphine]
peak plasma achieved faster than intraoral administration ([1]; intranasal): ~1000%
maximum drug plasma concentration higher than conventional oral formulation ([1]; intranasal, equivalent dose): ~500%
solubility in water ([2]; Example 14 text): about 35 mg/g
t1/2 ([3]; i.v., 20 mg): 222 min
t1/2 ([3]; p.o., 60 mg): 279 min
tmax ([3]; p.o., 60 mg): 46.6 min

C=CCN1CC[C@]23c4c5ccc(O)c4O[C@H]2C(=O)CC[C@@]3(O)[C@H]1C5 [Naloxone HCl, naloxone hydrochloride]
solubility in water ([2]; US EPA EPI Suite reference): 73 mg/mL
solubility in water ([2]; room temperature): greater than 70 mg/g

C=CCN1CC[C@]23c4c5ccc(O)c4O[C@H]2C(=O)CC[C@@]3(O)[C@H]1C5 [Naloxone]
mean absolute bioavailability of oral Naloxone ([4]; healthy subjects, doses 5 mg to 120 mg): less than or equal to 2%
mean absolute bioavailability ([4]; oral PR tablets, 5 mg dose, based on AUCt): 0.9%
solubility in water ([2]; Example 5): 1.4 mg/mL (≈ 4.28 mM)
bioavailability [5]: 1%
pKa [6]: around 7.9

O=C1CC[C@@]2(O)[C@H]3Cc4ccc(O)c5c4[C@@]2(CCN3CC2CC2)[C@H]1O5 [Naltrexone]
increase of permeation (factor) ([7]; pH of NTX increased from 6.8 to 7.5): 1.6
increase of permeation (factor) ([7]; pH of NTX increased from 6.8 to 8.5): 4.4
permeation enhancement ([7]; with Brij 58, reconstituted human buccal mucosa): 7.7

Oc1ccc2c3c1O[C@H]1[C@@H](O)CC[C@@]4(O)[C@@H](C2)N(CC2CCC2)CC[C@]314 [nalbuphine hydrochloride]
bioavailability ([1]; human, plasma, other: intranasal, 16.8 mg): > 200%
bioavailability when delivered orally ([3]; oral): approximately 12%
